The values below come from PMC5069662, “Transient Induced Molecular Electronic Spectroscopy (TIMES) for study of protein-ligand interactions” (Scientific Reports, 2016).

This test concerns the target T1, Thermolysin (Bacillus thermoproteolyticus, UniProt P00800).
T1 construct: gene npr
Put plainly: TIMES (label-free, immobilization-free microfluidic electronic detection), […] Tris-HCl buffer pH […]. Type of test: binding. As to conditions: read-out: Measured KD from TIMES.

T1 sequence (P00800 233-548): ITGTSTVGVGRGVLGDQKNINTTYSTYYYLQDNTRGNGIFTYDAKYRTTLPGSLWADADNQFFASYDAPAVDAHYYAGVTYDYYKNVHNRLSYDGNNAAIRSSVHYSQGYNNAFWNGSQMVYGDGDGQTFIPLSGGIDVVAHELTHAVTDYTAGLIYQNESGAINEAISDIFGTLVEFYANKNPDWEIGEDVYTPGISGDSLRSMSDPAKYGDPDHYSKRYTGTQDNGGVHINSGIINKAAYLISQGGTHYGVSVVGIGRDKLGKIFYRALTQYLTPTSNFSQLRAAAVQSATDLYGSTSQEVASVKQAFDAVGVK

For orientation: Kd means a measure of binding affinity in units of concentration. Turning to `CC(C)C[C@H](NP(=O)(O)O[C@@H]1O[C@@H](C)[C@H](O)[C@@H](O)[C@H]1O)C(=O)N[C@@H](Cc1c[nH]c2ccccc12)C(=O)O` [phosphoramidon], the Kd is 32.1 ± 1.9 nM.
